EP4644391A1, “NOVEL PHENYLQUINOLONE COMPOUND HAVING ANTIBACTERIAL AND ANTICANCER FUNCTIONS, AND PREPARATION THEREOF” (Alphamol Science Ltd (Shanghai), priority 2022, dated 2024)
In brackets after ≈: the same amount, converted by molar mass.

System: Staphylococcus aureus ATCC43300
Test: Resistance test of bacteria against compounds (serial passage, 21 days)
Assay type: cell-based
Conditions: Staphylococcus aureus, ATCC43300, 504 h, read-out: MIC at the end of the experiment
Procedure: This example provides a resistance test of bacteria against compounds, and the specific experimental method is as follows. • 1. […] It was ensured that among the 6 final concentrations of the drug diluted into the wells, some were higher than the original MIC of the bacteria and some were lower than the original MIC of the bacteria. • 2. Preparation of bacterial liquid: 10 mL of culture medium was taken and added to a sterilized plate using a pipette, then 100 µL of the above-mentioned passaged bacterial liquid was added, and mixed well for later use. • 3. The above-mentioned diluted bacterial liquid was taken and added to a 96-well plate using a pipette, 180 µL per well, 3 wells per group, 6 groups in total. 20 µL of drug solution was added to each well (note: it is necessary to replace the pipette tip each time the drug is added), so that the final drug concentrations were 2 µg/mL, 1 µg/mL, 0.8 µg/mL, 0.4 µg/mL, 0.2 µg/mL, 0.1 µg/mL, respectively. The well with 200 µL of diluted bacterial liquid was used as the positive control well, and the well with 200 µL of culture medium was used as the negative control well.
The test object was Staphylococcus aureus (S. aureus). The specific results are shown in FIG1.

## CN[C@H](CC(C)C)C(=O)N[C@H]1C(=O)N[C@@H](CC(N)=O)C(=O)N[C@H]2C(=O)N[C@H]3C(=O)N[C@H](C(=O)N[C@H](C(=O)O)c4cc(O)cc(O)c4-c4cc3ccc4O)[C@H](O)c3ccc(c(Cl)c3)Oc3cc2cc(c3O[C@@H]2O[C@H](CO)[C@@H](O)[C@H](O)[C@H]2O[C@H]2C[C@](C)(N)[C@H](O)[C@H](C)O2)Oc2ccc(cc2Cl)[C@H]1O [vancomycin]
  MIC: 4 µg/mL (≈ 2.76 µM)
